US20240067651A1 (Biohaven Therapeutics Ltd., priority 2019, published 2024)

Columns and labels:
[1] = Caco-2 Permeability Assay; type: in vitro ADME, human; conditions: human, Caco-2, pH 7.4
Outline: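 Bidirectional transport at 37 °C for 90 min, 10 μM donor concentration, with or without Pgp inhibitor, across 21-day Caco-2 monolayers with TEER >600 […] in HEPES-buffered HBSS, pH 7.4. LC-MS/MS of donor and receiver samples gives Papp, B→A/A→B efflux ratio and mass recovery.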

[2] = Stability in Simulated Gastric Fluid (SGF); type: in vitro ADME; parameters: key: % parent compound remaining relative to 0-minute sample; conditions: % remaining @ 1 h
Outline: (§1)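 Percent of parent remaining relative to time zero was measured by LC-MS/MS over 0–60 min at 37 °C, 150 rpm. Test compound was 2 μg/mL final in pepsin-containing SGF, pH 1.2, or pancreatin-containing SIF, pH 6.8. Degradation half-life was derived from the log-linear decay where enough points allowed.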

[3] = Stability in Simulated Intestinal Fluid (SIF); type: in vitro ADME; parameters: key: % parent compound remaining relative to 0-minute sample; conditions: % remaining @ 1 h
Outline: as §1

Plasma Stability = type: in vitro ADME, human; conditions: % remaining @ 1 h
Outline: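 Parent compound quantified by LC-MS/MS after acetonitrile precipitation, reported as percent of control remaining (triplicate). Incubation: 1 hour, 37° C, fresh human plasma, compound at 1 μM.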

SMILES | Papp at 90 min, 10 µM [1] [×10⁻⁶ cm/s] | SGF [2] | SIF [3] | human Plasma stability (Plasma Stability)
CC(C)C[C@H](NC(=O)OC(C)(C)C)C(=O)OCn1c(=O)c2c(ccn2COC(=O)[C@H](CC(C)C)NC(=O)OC(C)(C)C)n(CCOC(C)C)c1=S [Example 316, [3-({[(2S)-2-{[(tert-butoxy)carbonyl]amino}-4-methylpentanoyl]oxy}methyl)-4-oxo-1-[2-(propan-2-yloxy)ethyl]-2-sulfanylidene-1H,2H,3H,4H,5H-pyrrolo [3,2-d]pyrimidin-5-yl]methyl (2S)-2-{[(tert-butoxy)carbonyl]amino}-4-methylpentanoate] | 7.6 | 99%@ 1 h | 6%@ 1 h | 37%@ 1 h
CC(C)C[C@@H](NC(=O)OC(C)(C)C)C(=O)OCn1ccc2c1c(=O)[nH]c(=S)n2CCOC(C)C [Example 317, {4-oxo-1-[2-(propan-2-yloxy)ethyl]-2-sulfanylidene-1H,2H,3H,4H,5H-pyrrolo[3,2-d]pyrimidin-5-yl}methyl (2R)-2-{[(tert-butoxy)carbonyl]amino}-4-methylpentanoate] | 0.093 | 56%@ 1 h | 30%@ 1 h | 99%@ 1 h
CC(C)C[C@@H](NC(=O)OC(C)(C)C)C(=O)OCSc1nc(=O)c2c(ccn2COC(=O)[C@@H](CC(C)C)NC(=O)OC(C)(C)C)n1CCOC(C)C [Example 318, {[5-({[(2R)-2-{[(tert-butoxy)carbonyl]amino}-4-methylpentanoyl]oxy}methyl)-4-oxo-1-[2-(propan-2-yloxy)ethyl]-1H,4H,5H-pyrrolo[3,2-d]pyrimidin-2-yl]sulfanyl}methyl (2R)-2-{[(tert-butoxy)carbonyl]amino}-4-methylpentanoate] | 25.4 | 81%@ 1 h | 2%@ 1 h | 85%@ 1 h
CC(C)C[C@@H](NC(=O)OC(C)(C)C)C(=O)OCn1c(=O)c2c(ccn2COC(=O)[C@@H](CC(C)C)NC(=O)OC(C)(C)C)n(CCOC(C)C)c1=S [Example 319, [3-({[(2R)-2-{[(tert-butoxy)carbonyl]amino}-4-methylpentanoyl]oxy}methyl)-4-oxo-1-[2-(propan-2-yloxy)ethyl]-2-sulfanylidene-1H,2H,3H,4H,5H-pyrrolo[3,2-d]pyrimidin-5-yl]methyl (2R)-2-{[(tert-butoxy)carbonyl]amino}-4-methylpentanoate] | 10.5 | 34%@ 1 h | 0%@ 1 h | 42%@ 1 h
CC(C)C[C@H](N)C(=O)OCn1ccc2c1c(=O)[nH]c(=S)n2CCOC(C)C.O=C(O)C(F)(F)F [Example 320, trifluoroacetic acid {4-oxo-1-[2-(propan-2-yloxy)ethyl]-2-sulfanylidene-1H,2H,3H,4H,5H-pyrrolo[3,2-d]pyrimidin-5-yl}methyl (2S)-2-amino-4-methylpentanoate] | < 0.259 | 48%@ 1 h | 42%@ 1 h | 98%@ 1 h
CC(C)C[C@H](N)C(=O)OCSc1nc(=O)c2c(ccn2COC(=O)[C@@H](N)CC(C)C)n1CCOC(C)C.O=C(O)C(F)(F)F.O=C(O)C(F)(F)F [Example 321, bis(trifluoroacetic acid) {[5-({[(2S)-2-amino-4-methylpentanoyl]oxy}methyl)-4-oxo-1-[2-(propan-2-yloxy)ethyl]-1H,4H,5H-pyrrolo[3,2-d]pyrimidin-2-yl]sulfanyl}methyl (2S)-2-amino-4-methylpentanoate] | < 0.365 | 92%@ 1 h | 2%@ 1 h | 1%@ 1 h
CC(C)C[C@H](N)C(=O)OCn1c(=O)c2c(ccn2COC(=O)[C@@H](N)CC(C)C)n(CCOC(C)C)c1=S.O=C(O)C(F)(F)F.O=C(O)C(F)(F)F [Example 322, bis(trifluoroacetic acid) [3-({[(2S)-2-amino-4-methylpentanoyl]oxy}methyl)-4-oxo-1-[2-(propan-2-yloxy)ethyl]-2-sulfanylidene-1H,2H,3H,4H,5H-pyrrolo[3,2-d]pyrimidin-5-yl]methyl (2S)-2-amino-4-methylpentanoate] | < 0.106 | 56%@ 1 h | 61%@ 1 h | 64%@ 1 h
CC(C)C[C@H](N)C(=O)OCn1ccc2c1c(=O)n(CO)c(=S)n2CCOC(C)C.O=C(O)C(F)(F)F [Example 323, trifluoroacetic acid [3-(hydroxymethyl)-4-oxo-1-[2-(propan-2-yloxy)ethyl]-2-sulfanylidene-1H,2H,3H,4H,5H-pyrrolo[3,2-d]pyrimidin-5-yl]methyl (2S)-2-amino-4-methylpentanoate] | < 0.355 | 95%@ 1 h | 52%@ 1 h | 12%@ 1 h
CC(C)C[C@@H](N)C(=O)OCSc1nc(=O)c2c(ccn2COC(=O)[C@H](N)CC(C)C)n1CCOC(C)C.O=C(O)C(F)(F)F.O=C(O)C(F)(F)F [Example 325, bis(trifluoroacetic acid) {[5-({[(2R)-2-amino-4-methylpentanoyl]oxy}methyl)-4-oxo-1-[2-(propan-2-yloxy)ethyl]-1H,4H,5H-pyrrolo[3,2-d]pyrimidin-2-yl]sulfanyl}methyl (2R)-2-amino-4-methylpentanoate] | 0.908 | 99%@ 1 h | 3%@ 1 h | 1%@ 1 h
CC(C)C[C@@H](N)C(=O)OCn1c(=O)c2c(ccn2COC(=O)[C@H](N)CC(C)C)n(CCOC(C)C)c1=S.O=C(O)C(F)(F)F.O=C(O)C(F)(F)F [Example 326, bis(trifluoroacetic acid) [3-({[(2R)-2-amino-4-methylpentanoyl]oxy}methyl)-4-oxo-1-[2-(propan-2-yloxy)ethyl]-2-sulfanylidene-1H,2H,3H,4H,5H-pyrrolo [3,2-d]pyrimidin-5-yl]methyl (2R)-2-amino-4-methylpentanoate] | < 0.338 | 97%@ 1 h | 9%@ 1 h | 17%@ 1 h
CC(C)C[C@@H](N)C(=O)OCn1ccc2c1c(=O)n(CO)c(=S)n2CCOC(C)C.O=C(O)C(F)(F)F [Example 327, trifluoroacetic acid [3-(hydroxymethyl)-4-oxo-1-[2-(propan-2-yloxy)ethyl]-2-sulfanylidene-1H,2H,3H,4H,5H-pyrrolo[3,2-d]pyrimidin-5-yl]methyl (2R)-2-amino-4-methylpentanoate] | < 1.03 | 100%@ 1 h | 49%@ 1 h | 21%@ 1 h
CC(C)OCCn1c(=S)[nH]c(=O)c2c1ccn2COC(=O)CCCCOC(=O)CN.O=C(O)C(F)(F)F [Example 330, trifluoroacetic acid {4-oxo-1-[2-(propan-2-yloxy)ethyl]-2-sulfanylidene-1H,2H,3H,4H,5H-pyrrolo[3,2-d]pyrimidin-5-yl}methyl 5-[(2-aminoacetyl)oxy]pentanoate] | 0.641 | 84% @ 1 h | 7% @ 1 h | 2% @ 1 h
